# Values of other authors as cited in US20090022779A1, “Phenytoin Formulations, and Uses Thereof in Wound Healing” (Royal College of Surgeons in Ireland, priority 2004, published 2009).
# Conditions: background statement
row,solubility in water,SMILES
1,soluble,O=C1N=C([O-])NC1(c1ccccc1)c1ccccc1.[Na+] [Phenyloin sodium salt]
2,only slightly soluble,"O=C1NC(=O)C(c2ccccc2)(c2ccccc2)N1 [Phenyloin, 5,5-diphenylimidazolidine-2,4-dione]"
